Laboratory results from patent publication US20250136586A1, “Substituted 7-(Pyrimidin-4-yl)Quinolin-4(1H)-One Compounds as Cyclin Dependent Kinase Inhibitors” (BeiGene, Ltd., priority 2022, published 2025).

What was measured:
CDK6/Cyclin D3 = CDK6/Cyclin D3 (Homo sapiens (Human), UniProt Q00534); assay: TR-FRET kinase inhibition assay, CDK6/Cyclin D3; format: biochemical; settings: 1 mM ATP, 0.15 μM Rb (Ser780)-biotin substrate, read-out: CDK6D3 IC50
Method: (§1) Compounds disclosed herein were tested for inhibition of CDK4/Cyclin D1 or CDK6/Cyclin D3 kinase in an assay based on the time-resolved fluorescence-resonance energy transfer (TR-FRET) methodology. The assay was carried out in 384-well low volume black plates in a reaction mixture containing CDK4/Cyclin D1 or CDK6/Cyclin D3, 1 mM ATP, 0.15 μM Rb (Ser780)-biotin substrate and 0-10 μM compound in buffer containing 50 mM HEPES pH7.0, 0.02% NaN3, 0.01% BSA, 0.1 mM Orthovanadate, 50 mM MgCl2, 1 mM DTT and 0.005% Tween-20. The kinase was incubated with compound for 60 minutes at room temperature and the reaction was initiated by the addition of ATP and Rb (Ser780)-biotin substrate. After reaction at room temperature for 120 minutes, an equal volume of stop/detection solution was added according to the manufacture's instruction (Cisbio Bioassays). The stop/detection solution contained Streptavidin-XL665 and Anti-pRb (Ser780) mAb-Eu Cryptate in Detection buffer (Cisbio Bioassays). Plates were incubated at room temperature for 60 minutes, and the TR-FRET signals (ex337 nm, em665 nm/620 nm) were recorded on a PHERAstar FSX plate reader (BMG Labtech). The inhibition percentage of CDK4/Cyclin D1 or CDK6/Cyclin D3 kinase activity in presence of increasing concentrations of compounds was calculated based on the ratio of fluorescence at 665 nm to that at 620 nm. The IC50 for each compound was derived from fitting the data to the four-parameter logistic equation by Dotmatics.

CDK4/Cyclin D1 = CDK4/Cyclin D1 (Homo sapiens (Human), UniProt P11802); assay: TR-FRET kinase inhibition assay, CDK4/Cyclin D1; format: biochemical; settings: 1 mM ATP, 0.15 μM Rb (Ser780)-biotin substrate, read-out: CDK4D1 IC50
CDK4/Cyclin D1, sequence (P11802 whole entry): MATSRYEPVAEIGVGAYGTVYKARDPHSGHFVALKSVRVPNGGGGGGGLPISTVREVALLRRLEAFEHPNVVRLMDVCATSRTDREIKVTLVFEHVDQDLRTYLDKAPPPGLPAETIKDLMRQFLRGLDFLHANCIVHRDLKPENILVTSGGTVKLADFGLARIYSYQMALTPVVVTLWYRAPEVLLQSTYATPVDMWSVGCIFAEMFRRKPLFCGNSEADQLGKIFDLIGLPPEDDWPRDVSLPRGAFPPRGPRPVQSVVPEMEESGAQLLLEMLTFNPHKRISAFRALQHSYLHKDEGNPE
CDK4/Cyclin D1, sequence (P24385 whole entry partner): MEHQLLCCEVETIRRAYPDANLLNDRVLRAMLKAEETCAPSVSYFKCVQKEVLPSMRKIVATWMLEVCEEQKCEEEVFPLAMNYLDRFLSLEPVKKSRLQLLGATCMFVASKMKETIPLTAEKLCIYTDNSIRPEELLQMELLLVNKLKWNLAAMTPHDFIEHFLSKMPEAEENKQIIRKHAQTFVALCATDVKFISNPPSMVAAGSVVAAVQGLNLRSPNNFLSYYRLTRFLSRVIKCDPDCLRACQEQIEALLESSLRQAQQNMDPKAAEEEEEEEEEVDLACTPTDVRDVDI
Method: as §1, with “The assay was carried out in 384-well low volume black plates in a reaction mixture containing CDK4/Cyclin D1 or CDK6/Cyclin D3, 1 mM ATP, 0.15 μM Rb (Ser780)-biotin substrate and 0-10 μM compound in buffer containing 50 mM HEPES pH7.0, 0.02% NaN3, 0.01% BSA, 0.1 mM Orthovanadate, 50 mM MgCl2, 1 mM DTT and 0.005% Tween-20.” left out, “Plates were incubated at room temperature for 60 minutes, and the TR-FRET signals (ex337 nm, em665 nm/620 nm) were recorded on a PHERAstar FSX plate reader (BMG Labtech).” left out

CDK6/Cyclin D3, sequence (Q00534 whole entry): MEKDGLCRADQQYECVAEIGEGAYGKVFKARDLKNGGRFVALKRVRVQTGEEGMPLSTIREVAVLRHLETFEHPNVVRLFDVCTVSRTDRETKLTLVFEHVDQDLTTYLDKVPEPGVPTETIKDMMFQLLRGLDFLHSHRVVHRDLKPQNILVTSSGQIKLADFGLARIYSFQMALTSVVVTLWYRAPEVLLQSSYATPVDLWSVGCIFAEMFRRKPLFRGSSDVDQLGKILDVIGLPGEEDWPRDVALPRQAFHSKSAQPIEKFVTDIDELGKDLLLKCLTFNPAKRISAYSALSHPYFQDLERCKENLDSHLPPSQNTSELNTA
CDK6/Cyclin D3, sequence (P30281 whole entry partner): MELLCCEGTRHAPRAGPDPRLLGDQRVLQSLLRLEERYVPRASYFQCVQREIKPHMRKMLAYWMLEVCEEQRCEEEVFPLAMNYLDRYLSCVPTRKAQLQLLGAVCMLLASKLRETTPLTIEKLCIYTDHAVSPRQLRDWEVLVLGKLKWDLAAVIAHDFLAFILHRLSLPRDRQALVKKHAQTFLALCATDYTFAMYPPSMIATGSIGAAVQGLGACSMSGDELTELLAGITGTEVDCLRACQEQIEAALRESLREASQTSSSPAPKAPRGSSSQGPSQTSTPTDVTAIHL

| SMILES | IC50 (CDK6/Cyclin D3) [µM] | IC50 (CDK4/Cyclin D1) [µM] |
| --- | --- | --- |
| CC(C)n1c(CN2CCC(C#N)CC2)cc(=O)c2ccc(-c3nc(N[C@@H]4CCOC[C@H]4O)ncc3F)cc21 [Example 37, 1-((7-(5-fluoro-2-(((3S,4R)-3-hydroxytetrahydro-2H-pyran-4-yl)amino)pyrimidin-4-yl)-1-isopropyl-4-oxo-1,4-dihydroquinolin-2-yl)methyl)piperidine-4-carbonitrile] | 0.682 | 0.022 |
| CC(C)n1c(CN2C[C@H]3COC[C@H]3C2)cc(=O)c2ccc(-c3nc(N[C@@H]4CCOC[C@H]4O)ncc3F)cc21 [Example 41, 7-(5-fluoro-2-(((3S,4R)-3-hydroxytetrahydro-2H-pyran-4-yl)amino)pyrimidin-4-yl)-1-isopropyl-2-(((3aR,6aS)-tetrahydro-1H-furo[3,4-c]pyrrol-5(3H)-yl)methyl)quinolin-4(1H)-one] | 1.3 | 0.024 |
| CC(C)n1c(CN2CCC[C@H](O)C2)cc(=O)c2ccc(-c3nc(N[C@@H]4CCOC[C@H]4O)ncc3F)cc21 [Example 56, 7-(5-fluoro-2-(((3S,4R)-3-hydroxytetrahydro-2H-pyran-4-yl)amino)pyrimidin-4-yl)-2-(((S)-3-hydroxypiperidin-1-yl)methyl)-1-isopropylquinolin-4(1H)-one] | 0.238 | 0.007 |
| CC(C)n1c(CN2CCCC2)cc(=O)c2ccc(-c3nc(N[C@@H]4CCOC[C@H]4O)ncc3F)cc21 [Example 100, 7-(5-fluoro-2-(((3S,4R)-3-hydroxytetrahydro-2H-pyran-4-yl)amino)pyrimidin-4-yl)-1-isopropyl-2-(pyrrolidin-1-ylmethyl)quinolin-4(1H)-one] | 0.76 | 0.019 |
| Cc1c(CN2CCC[C@H](O)C2)n(C(C)C)c2cc(-c3nc(N[C@@H]4CCOC[C@H]4O)ncc3F)ccc2c1=O [Example 123, 7-(5-fluoro-2-(((3S,4R)-3-hydroxytetrahydro-2H-pyran-4-yl)amino)pyrimidin-4-yl)-2-(((S)-3-hydroxypiperidin-1-yl)methyl)-1-isopropyl-3-methylquinolin-4(1H)-one] | 0.129 | 0.0043 |
| CC(C)n1c(CN2CCC[C@]3(CCNC3=O)C2)cc(=O)c2ccc(-c3nc(N[C@@H]4CCOC[C@H]4O)ncc3F)cc21 [Example 105, (S)-7-((7-(5-fluoro-2-(((3S,4R)-3-hydroxytetrahydro-2H-pyran-4-yl)amino)pyrimidin-4-yl)-1-isopropyl-4-oxo-1,4-dihydroquinolin-2-yl)methyl)-2,7-diazaspiro[4.5]decan-1-one] | 0.291 | 0.0041 |
| Cc1c(CN[C@H]2CCOC2)n(C(C)C)c2cc(-c3nc(N[C@@H]4CCOC[C@H]4O)ncc3F)ccc2c1=O [Example 113, 7-(5-fluoro-2-(((3S,4R)-3-hydroxytetrahydro-2H-pyran-4-yl)amino)pyrimidin-4-yl)-1-isopropyl-3-methyl-2-((((S)-tetrahydrofuran-3-yl)amino)methyl)quinolin-4(1H)-one] | 0.663 | 0.017 |
| Cc1c(C)n(C(C)C)c2cc(-c3nc(N[C@@H]4CCOC[C@H]4O)ncc3F)ccc2c1=O [Example 16, 7-(5-fluoro-2-(((3S,4R)-3-hydroxytetrahydro-2H-pyran-4-yl)amino)pyrimidin-4-yl)-1-isopropyl-2,3-dimethylquinolin-4(1H)-one] | 0.257 | 0.0083 |
| CC(C)n1c(CN2CC[C@@H](F)C2)cc(=O)c2ccc(-c3nc(N[C@@H]4CCOC[C@H]4O)ncc3F)cc21 [Example 49, 7-(5-fluoro-2-(((3S,4R)-3-hydroxytetrahydro-2H-pyran-4-yl)amino)pyrimidin-4-yl)-2-(((R)-3-fluoropyrrolidin-1-yl)methyl)-1-isopropylquinolin-4(1H)-one] | 0.299 | 0.0083 |
| Cc1c(C2CCN2C)n(C(C)C)c2cc(-c3nc(N[C@@H]4CCOC[C@H]4O)ncc3F)ccc2c1=O (stereo partly drawn) [Example 387, 7-(5-fluoro-2-(((3S,4R)-3-hydroxytetrahydro-2H-pyran-4-yl)amino)pyrimidin-4-yl)-1-isopropyl-3-methyl-2-(1-methylazetidin-2-yl)quinolin-4(1H)-one] | 0.237 | 0.0051 |

Further compounds by falling IC50 (CDK6/Cyclin D3), results first:

| IC50 (CDK6/Cyclin D3) [µM] | IC50 (CDK4/Cyclin D1) [µM] | SMILES |
| --- | --- | --- |
| 1.44 | 0.04 | Cc1cc(=O)c2ccc(-c3nc(N[C@@H]4CCOC[C@H]4O)ncc3F)cc2n1C1CCCC1 [Example 10, 1-cyclopentyl-7-(5-fluoro-2-(((3S,4R)-3-hydroxytetrahydro-2H-pyran-4-yl)amino)pyrimidin-4-yl)-2-methylquinolin-4(1H)-one] |
| 1.25 | 0.078 | CC(C)n1ccc(=O)c2ccc(-c3nc(N[C@@H]4CCOC[C@H]4O)ncc3F)cc21 [Example 3, 7-(5-fluoro-2-(((3S,4R)-3-hydroxytetrahydro-2H-pyran-4-yl)amino)pyrimidin-4-yl)-1-isopropylquinolin-4(1H)-one] |
| 1.06 | 0.024 | CC(C)n1c(CN2CCC3(CCCO3)C2)cc(=O)c2ccc(-c3nc(N[C@@H]4CCOC[C@H]4O)ncc3F)cc21 (stereo partly drawn) [Example 91, 2-((1-oxa-7-azaspiro[4.4]nonan-7-yl)methyl)-7-(5-fluoro-2-(((3S,4R)-3-hydroxytetrahydro-2H-pyran-4-yl)amino)pyrimidin-4-yl)-1-isopropylquinolin-4(1H)-one] |
| 0.553 | 0.057 | CNC(=O)c1cc(=O)c2c(Cl)cc(-c3nc(N[C@@H]4CCOC[C@H]4O)ncc3F)cc2n1C(C)C [Example 36, 5-chloro-7-(5-fluoro-2-(((3S,4R)-3-hydroxytetrahydro-2H-pyran-4-yl)amino)pyrimidin-4-yl)-1-isopropyl-N-methyl-4-oxo-1,4-dihydroquinoline-2-carboxamide] |
| 0.445 | 0.053 | CNC(=O)c1c(Cl)c(=O)c2ccc(-c3nc(N[C@@H]4CCOC[C@H]4O)ncc3F)cc2n1C(C)C [Example 23, 3-chloro-7-(5-fluoro-2-(((3S,4R)-3-hydroxytetrahydro-2H-pyran-4-yl)amino)pyrimidin-4-yl)-1-isopropyl-N-methyl-4-oxo-1,4-dihydroquinoline-2-carboxamide] |
| 0.255 | 0.017 | CC(C)n1c(CN2CCO[C@@H](C)C2)cc(=O)c2ccc(-c3nc(N[C@@H]4CCOC[C@H]4O)ncc3F)cc21 [Example 62, 7-(5-fluoro-2-(((3S,4R)-3-hydroxytetrahydro-2H-pyran-4-yl)amino)pyrimidin-4-yl)-1-isopropyl-2-(((S)-2-methylmorpholino)methyl)quinolin-4(1H)-one] |
| 0.22 | 0.0016 | Cc1c(C2CCCN2)n(C(C)C)c2cc(-c3nc(N[C@@H]4CCOC[C@H]4O)ncc3F)ccc2c1=O (stereo partly drawn) [Example 389, 7-(5-fluoro-2-(((3S,4R)-3-hydroxytetrahydro-2H-pyran-4-yl)amino)pyrimidin-4-yl)-1-isopropyl-3-methyl-2-(pyrrolidin-2-yl)quinolin-4(1H)-one] |
| 0.2 | 0.01 | CC(C)n1c(CN2C[C@H](O)[C@@H](F)C2)cc(=O)c2ccc(-c3nc(N[C@@H]4CCOC[C@H]4O)ncc3F)cc21 [Example 32, 7-(5-fluoro-2-(((3S,4R)-3-hydroxytetrahydro-2H-pyran-4-yl)amino)pyrimidin-4-yl)-2-(((3S,4S)-3-fluoro-4-hydroxypyrrolidin-1-yl)methyl)-1-isopropylquinolin-4(1H)-one] |
| 0.139 | 0.0082 | CC(C)n1c(CN2CCOCC2)cc(=O)c2ccc(-c3nc(N[C@@H]4CCOC[C@H]4O)ncc3F)cc21 [Example 25, 7-(5-fluoro-2-(((3S,4R)-3-hydroxytetrahydro-2H-pyran-4-yl)amino)pyrimidin-4-yl)-1-isopropyl-2-(morpholinomethyl)quinolin-4(1H)-one] |
| 0.0216 | 0.0008 | Cc1c(CN2[C@H](C)COC[C@@H]2C)n(C(C)C)c2cc(-c3nc(N[C@@H]4CCOC[C@H]4O)ncc3F)ccc2c1=O [Example 72, 2-(((3R,5S)-3,5-dimethylmorpholino)methyl)-7-(5-fluoro-2-(((3S,4R)-3-hydroxytetrahydro-2H-pyran-4-yl)amino)pyrimidin-4-yl)-1-isopropyl-3-methylquinolin-4(1H)-one] |
